What was measured:
[1] = biological target: Serine/threonine-protein kinase ULK1 (Homo sapiens) (UniProt O75385); assay: ULK1 SGC Tm panel (DSF); details: Compound concentration 20.0 uM
[2] = biological target: Serine/threonine-protein kinase PAK 1 (Homo sapiens) (UniProt Q13153); assay: PAK1 SGC Tm panel (DSF); details: Compound concentration 20.0 uM
[3] = biological target: Alpha-1B adrenergic receptor (Homo sapiens) (UniProt P35368); details: Compound concentration 10.0 uM
[4] = biological target: 5-hydroxytryptamine receptor 2C (Homo sapiens) (UniProt P28335); details: Compound concentration 10.0 uM
[5] = biological target: 5-hydroxytryptamine receptor 2A (Homo sapiens) (UniProt P28223); details: Compound concentration 10.0 uM
[6] = biological target: T1, Zinc finger and BTB domain-containing protein 10 (Homo sapiens) (UniProt Q96DT7); details: SUD4, Compound concentration 1.0 uM
T1 sequence (whole entry): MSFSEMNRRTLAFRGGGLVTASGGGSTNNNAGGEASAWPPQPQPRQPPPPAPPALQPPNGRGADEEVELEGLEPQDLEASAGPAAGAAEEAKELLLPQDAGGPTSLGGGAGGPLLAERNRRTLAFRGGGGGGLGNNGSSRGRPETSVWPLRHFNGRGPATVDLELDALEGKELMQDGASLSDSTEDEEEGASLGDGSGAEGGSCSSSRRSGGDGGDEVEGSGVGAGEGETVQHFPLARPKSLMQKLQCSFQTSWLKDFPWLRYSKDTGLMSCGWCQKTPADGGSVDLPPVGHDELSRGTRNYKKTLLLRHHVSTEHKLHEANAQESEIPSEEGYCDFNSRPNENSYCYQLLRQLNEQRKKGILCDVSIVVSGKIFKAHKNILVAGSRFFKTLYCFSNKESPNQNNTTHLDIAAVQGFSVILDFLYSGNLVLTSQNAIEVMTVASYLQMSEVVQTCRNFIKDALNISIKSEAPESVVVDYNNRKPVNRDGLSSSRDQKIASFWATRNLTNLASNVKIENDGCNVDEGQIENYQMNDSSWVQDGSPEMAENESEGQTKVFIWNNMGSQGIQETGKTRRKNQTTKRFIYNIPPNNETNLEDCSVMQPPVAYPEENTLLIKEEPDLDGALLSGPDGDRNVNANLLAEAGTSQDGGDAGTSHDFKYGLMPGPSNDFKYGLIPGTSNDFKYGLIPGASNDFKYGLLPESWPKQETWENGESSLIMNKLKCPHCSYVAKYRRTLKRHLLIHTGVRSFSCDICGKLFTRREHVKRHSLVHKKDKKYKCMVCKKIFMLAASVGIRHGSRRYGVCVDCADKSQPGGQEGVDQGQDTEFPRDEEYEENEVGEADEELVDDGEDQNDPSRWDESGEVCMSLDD

[7] = biological target: Serine/threonine-protein kinase Chk2 (Homo sapiens) (UniProt O96017); assay: CHEK2 SGC Tm panel (DSF); details: Compound concentration 20.0 uM
[8] = biological target: Serine/threonine-protein kinase 4 (Homo sapiens) (UniProt Q13043); assay: STK4 SGC Tm panel (DSF); details: Compound concentration 20.0 uM
[9] = biological target: Serine/threonine-protein kinase 17B (Homo sapiens) (UniProt O94768); assay: STK17B SGC Tm panel (DSF); details: Compound concentration 20.0 uM
[10] = biological target: Calcium/calmodulin-dependent protein kinase type IV (Homo sapiens) (UniProt Q16566); assay: CAMK4 SGC Tm panel (DSF); details: Compound concentration 20.0 uM
[11] = biological target: Serine/threonine-protein kinase Nek7 (Homo sapiens) (UniProt Q8TDX7); assay: NEK7 SGC Tm panel (DSF); details: Compound concentration 20.0 uM
[12] = biological target: Serine/threonine-protein kinase VRK1 (Homo sapiens) (UniProt Q99986); assay: VRK1 SGC Tm panel (DSF); details: Compound concentration 20.0 uM
[13] = biological target: Beta-3 adrenergic receptor (Homo sapiens, UniProt P13945); details: Compound concentration 10.0 uM
[14] = biological target: GABA-A receptor; anion channel (Rattus norvegicus) (UniProt O09028+P15431+P18506+P18508+P19969+P20236+P23574+P23576+P28471+P28473+P30191+P62813+P63079+P63138+Q91ZM7+Q9ES14); details: Compound concentration 10.0 uM
[15] = biological target: Homeodomain-interacting protein kinase 2 (Homo sapiens) (UniProt Q9H2X6); assay: HIPK2 SGC Tm panel (DSF); details: Compound concentration 20.0 uM
[16] = biological target: Mitogen-activated protein kinase 14 (Homo sapiens) (UniProt Q16539); assay: MAPK14 SGC Tm panel (DSF); details: Compound concentration 20.0 uM
[17] = biological target: Alpha-2C adrenergic receptor (Homo sapiens) (UniProt P18825); details: Compound concentration 10.0 uM
[18] = biological target: Zinc finger and BTB domain-containing protein 14 (Homo sapiens) (UniProt O43829); details: SUD4, Compound concentration 1.0 uM
[19] = biological target: Cyclin-dependent kinase 2 (Homo sapiens) (UniProt P24941); assay: CDK2 SGC Tm panel (DSF); details: Compound concentration 20.0 uM
[20] = biological target: T2, Zinc finger and BTB domain-containing protein 44 (Homo sapiens) (UniProt Q8NCP5); details: OCI-Ly1, Compound concentration 1.0 uM
T2 sequence (whole entry): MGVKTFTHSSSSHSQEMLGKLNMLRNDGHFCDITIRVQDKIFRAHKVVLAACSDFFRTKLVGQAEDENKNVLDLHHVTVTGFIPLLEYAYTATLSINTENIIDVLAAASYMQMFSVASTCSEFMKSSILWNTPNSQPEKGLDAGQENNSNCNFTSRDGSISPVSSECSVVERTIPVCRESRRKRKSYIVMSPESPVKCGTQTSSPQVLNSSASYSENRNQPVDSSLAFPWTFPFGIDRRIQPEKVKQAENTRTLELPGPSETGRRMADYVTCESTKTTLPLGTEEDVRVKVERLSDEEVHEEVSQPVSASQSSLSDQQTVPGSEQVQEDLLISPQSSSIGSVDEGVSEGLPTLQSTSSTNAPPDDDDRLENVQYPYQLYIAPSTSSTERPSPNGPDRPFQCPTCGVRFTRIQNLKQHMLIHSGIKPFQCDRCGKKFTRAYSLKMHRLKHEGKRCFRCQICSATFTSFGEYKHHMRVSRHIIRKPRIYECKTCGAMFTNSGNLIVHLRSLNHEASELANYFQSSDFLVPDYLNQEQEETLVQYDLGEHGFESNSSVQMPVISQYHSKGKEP

Rattus norvegicus = species on record: Rattus norvegicus; details: Compound concentration 10.0 uM
[21] = biological target: Transcription initiation factor TFIID subunit 1 (Homo sapiens) (UniProt P21675); assay: TAF1 SGC Tm panel (DSF); details: Compound concentration 20.0 uM
[22] = biological target: D(4) dopamine receptor (Homo sapiens) (UniProt P21917); details: Compound concentration 10.0 uM
[23] = biological target: Ephrin type-A receptor 2 (Homo sapiens) (UniProt P29317); assay: EPHA2 SGC Tm panel (DSF); details: Compound concentration 20.0 uM
[24] = biological target: Tyrosine-protein kinase ABL1 (Homo sapiens) (UniProt P00519); assay: ABL1 SGC Tm panel (DSF); details: Compound concentration 20.0 uM

Chain of Serine/threonine-protein kinase Nek7 (Homo sapiens) (Q8TDX7 whole entry, looked up): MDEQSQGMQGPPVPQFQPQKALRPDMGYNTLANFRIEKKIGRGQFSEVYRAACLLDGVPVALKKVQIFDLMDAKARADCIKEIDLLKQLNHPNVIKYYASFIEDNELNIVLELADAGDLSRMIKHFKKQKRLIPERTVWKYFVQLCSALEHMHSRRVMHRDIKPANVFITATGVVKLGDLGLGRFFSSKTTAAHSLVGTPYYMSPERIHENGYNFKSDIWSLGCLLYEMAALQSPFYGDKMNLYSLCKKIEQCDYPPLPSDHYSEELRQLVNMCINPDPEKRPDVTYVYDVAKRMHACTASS
Chain of D(4) dopamine receptor (Homo sapiens) (P21917 whole entry): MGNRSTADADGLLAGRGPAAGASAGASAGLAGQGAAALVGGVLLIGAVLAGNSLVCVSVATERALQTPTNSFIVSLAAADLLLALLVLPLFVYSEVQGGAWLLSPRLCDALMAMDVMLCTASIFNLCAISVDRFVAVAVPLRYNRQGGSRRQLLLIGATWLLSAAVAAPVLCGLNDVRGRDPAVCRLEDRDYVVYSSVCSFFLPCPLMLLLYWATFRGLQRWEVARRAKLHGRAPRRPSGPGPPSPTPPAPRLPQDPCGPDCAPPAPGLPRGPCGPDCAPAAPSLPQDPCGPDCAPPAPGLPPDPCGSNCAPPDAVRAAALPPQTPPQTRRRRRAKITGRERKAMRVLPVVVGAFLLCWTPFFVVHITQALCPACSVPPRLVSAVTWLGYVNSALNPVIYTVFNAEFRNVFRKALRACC
Chain of Zinc finger and BTB domain-containing protein 14 (Homo sapiens) (O43829 whole entry, the tested form may be a part): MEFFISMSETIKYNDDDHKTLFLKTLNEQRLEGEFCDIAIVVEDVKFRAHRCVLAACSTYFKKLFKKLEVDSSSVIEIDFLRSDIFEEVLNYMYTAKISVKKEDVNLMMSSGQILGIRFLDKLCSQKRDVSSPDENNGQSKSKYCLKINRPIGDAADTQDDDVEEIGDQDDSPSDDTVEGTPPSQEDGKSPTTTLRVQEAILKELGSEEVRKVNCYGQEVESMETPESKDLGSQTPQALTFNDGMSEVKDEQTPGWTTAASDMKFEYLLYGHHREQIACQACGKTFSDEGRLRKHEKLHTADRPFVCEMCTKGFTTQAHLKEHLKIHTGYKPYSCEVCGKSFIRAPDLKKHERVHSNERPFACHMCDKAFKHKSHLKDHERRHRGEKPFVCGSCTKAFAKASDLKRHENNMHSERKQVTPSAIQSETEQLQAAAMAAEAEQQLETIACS
Chain of Mitogen-activated protein kinase 14 (Homo sapiens) (Q16539 whole entry): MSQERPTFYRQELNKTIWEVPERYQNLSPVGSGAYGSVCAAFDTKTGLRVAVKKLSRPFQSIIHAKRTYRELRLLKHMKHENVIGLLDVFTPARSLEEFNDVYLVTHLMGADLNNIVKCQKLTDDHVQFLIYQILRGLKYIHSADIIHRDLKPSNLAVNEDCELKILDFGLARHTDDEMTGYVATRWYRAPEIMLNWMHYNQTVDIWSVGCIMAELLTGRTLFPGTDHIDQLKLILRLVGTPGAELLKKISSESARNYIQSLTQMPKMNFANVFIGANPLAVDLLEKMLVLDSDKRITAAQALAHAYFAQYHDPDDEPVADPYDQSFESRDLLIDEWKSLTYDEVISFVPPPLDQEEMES
Chain of 5-hydroxytryptamine receptor 2C (Homo sapiens) (P28335 whole entry): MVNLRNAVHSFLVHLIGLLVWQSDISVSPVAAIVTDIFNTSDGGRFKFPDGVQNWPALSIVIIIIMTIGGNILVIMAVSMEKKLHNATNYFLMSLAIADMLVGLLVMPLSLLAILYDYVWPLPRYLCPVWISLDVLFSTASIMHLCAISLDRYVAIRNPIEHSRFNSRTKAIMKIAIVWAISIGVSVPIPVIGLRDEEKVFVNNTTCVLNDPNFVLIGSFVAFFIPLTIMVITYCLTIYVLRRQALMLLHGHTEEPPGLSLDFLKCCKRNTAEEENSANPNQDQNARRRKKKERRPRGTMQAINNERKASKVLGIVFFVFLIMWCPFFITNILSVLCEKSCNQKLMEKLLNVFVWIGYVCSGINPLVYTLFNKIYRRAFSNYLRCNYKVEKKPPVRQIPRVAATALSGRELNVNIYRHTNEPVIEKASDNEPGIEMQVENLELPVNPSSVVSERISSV
Chain of 5-hydroxytryptamine receptor 2A (Homo sapiens) (P28223 whole entry, the tested form may be a part): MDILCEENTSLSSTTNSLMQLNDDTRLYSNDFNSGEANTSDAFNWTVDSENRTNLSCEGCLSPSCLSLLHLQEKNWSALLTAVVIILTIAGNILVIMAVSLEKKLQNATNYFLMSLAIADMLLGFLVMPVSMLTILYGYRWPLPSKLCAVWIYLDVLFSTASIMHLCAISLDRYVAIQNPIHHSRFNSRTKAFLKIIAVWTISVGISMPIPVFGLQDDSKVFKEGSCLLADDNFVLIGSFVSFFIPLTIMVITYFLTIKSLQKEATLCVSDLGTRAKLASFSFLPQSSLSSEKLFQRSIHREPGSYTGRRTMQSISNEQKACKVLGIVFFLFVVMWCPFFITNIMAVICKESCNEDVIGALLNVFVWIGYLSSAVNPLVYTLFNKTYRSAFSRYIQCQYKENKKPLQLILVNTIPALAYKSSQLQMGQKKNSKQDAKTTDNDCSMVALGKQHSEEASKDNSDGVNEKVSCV
Chain of Serine/threonine-protein kinase Chk2 (Homo sapiens) (O96017 whole entry): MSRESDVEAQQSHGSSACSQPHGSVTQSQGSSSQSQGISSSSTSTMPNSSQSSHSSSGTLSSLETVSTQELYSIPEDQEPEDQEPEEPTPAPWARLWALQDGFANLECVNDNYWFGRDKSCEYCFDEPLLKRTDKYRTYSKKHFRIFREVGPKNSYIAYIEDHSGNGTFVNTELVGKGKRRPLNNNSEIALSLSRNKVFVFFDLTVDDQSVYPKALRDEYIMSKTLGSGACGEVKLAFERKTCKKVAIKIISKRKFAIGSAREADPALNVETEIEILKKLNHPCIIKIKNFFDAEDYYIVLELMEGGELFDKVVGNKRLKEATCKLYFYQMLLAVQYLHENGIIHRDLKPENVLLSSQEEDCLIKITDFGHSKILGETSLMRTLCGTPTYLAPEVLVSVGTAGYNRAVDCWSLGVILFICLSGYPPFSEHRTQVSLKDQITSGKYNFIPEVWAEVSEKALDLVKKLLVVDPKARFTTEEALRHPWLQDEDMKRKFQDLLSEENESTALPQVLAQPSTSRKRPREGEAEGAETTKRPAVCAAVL
Chain of Calcium/calmodulin-dependent protein kinase type IV (Homo sapiens) (Q16566 whole entry): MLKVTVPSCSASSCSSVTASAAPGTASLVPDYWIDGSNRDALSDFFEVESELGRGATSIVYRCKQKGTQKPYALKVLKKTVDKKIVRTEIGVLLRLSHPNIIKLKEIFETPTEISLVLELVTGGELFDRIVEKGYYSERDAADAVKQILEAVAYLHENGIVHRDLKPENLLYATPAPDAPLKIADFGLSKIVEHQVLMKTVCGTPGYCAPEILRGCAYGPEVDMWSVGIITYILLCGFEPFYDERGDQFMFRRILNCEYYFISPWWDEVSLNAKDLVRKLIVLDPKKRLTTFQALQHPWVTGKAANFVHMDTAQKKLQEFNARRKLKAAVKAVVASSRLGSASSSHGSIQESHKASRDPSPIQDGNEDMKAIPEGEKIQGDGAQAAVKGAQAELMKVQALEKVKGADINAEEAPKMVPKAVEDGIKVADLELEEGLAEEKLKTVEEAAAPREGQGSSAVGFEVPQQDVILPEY
Chain of Serine/threonine-protein kinase 17B (Homo sapiens) (O94768 whole entry): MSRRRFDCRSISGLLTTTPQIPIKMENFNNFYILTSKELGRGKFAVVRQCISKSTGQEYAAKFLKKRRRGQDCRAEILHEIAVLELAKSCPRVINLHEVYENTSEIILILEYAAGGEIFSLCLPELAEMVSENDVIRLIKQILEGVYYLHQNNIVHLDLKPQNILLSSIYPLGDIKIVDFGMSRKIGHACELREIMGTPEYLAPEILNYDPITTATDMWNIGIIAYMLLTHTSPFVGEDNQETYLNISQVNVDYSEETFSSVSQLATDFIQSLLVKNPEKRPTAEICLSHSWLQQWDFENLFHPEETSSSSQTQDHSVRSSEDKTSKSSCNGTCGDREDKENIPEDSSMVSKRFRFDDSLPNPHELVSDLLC
Chain of Beta-3 adrenergic receptor (P13945 whole entry, looked up): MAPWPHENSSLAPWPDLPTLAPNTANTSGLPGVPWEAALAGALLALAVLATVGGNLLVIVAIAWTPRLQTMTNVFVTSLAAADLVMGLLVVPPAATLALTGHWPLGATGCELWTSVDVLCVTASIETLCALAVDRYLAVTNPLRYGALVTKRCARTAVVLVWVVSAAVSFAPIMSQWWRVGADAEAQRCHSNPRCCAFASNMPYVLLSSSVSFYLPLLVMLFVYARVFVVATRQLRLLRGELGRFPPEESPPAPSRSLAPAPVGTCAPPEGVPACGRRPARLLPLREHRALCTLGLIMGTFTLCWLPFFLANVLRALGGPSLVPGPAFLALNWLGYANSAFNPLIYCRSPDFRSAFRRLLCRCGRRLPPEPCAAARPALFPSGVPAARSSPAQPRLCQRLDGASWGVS
Chain of Serine/threonine-protein kinase VRK1 (Homo sapiens) (Q99986 whole entry): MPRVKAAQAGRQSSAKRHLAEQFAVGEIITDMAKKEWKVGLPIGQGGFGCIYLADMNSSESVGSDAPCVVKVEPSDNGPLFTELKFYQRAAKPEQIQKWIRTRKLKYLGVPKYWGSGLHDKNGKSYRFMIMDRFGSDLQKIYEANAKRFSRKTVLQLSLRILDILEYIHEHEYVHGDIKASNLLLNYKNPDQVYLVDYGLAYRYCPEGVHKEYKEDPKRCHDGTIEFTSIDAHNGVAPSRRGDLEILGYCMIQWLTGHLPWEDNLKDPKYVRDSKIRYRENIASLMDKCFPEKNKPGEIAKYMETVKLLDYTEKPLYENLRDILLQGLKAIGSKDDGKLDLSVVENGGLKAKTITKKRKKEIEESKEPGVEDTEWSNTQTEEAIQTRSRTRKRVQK

C[C@@H]1CN(c2ncc(Cl)c(Nc3ccc4c(c3)n(CCC(C)(C)O)c(=O)n4C)n2)C[C@H](C)C1(F)F
Tm [1]: 41 °C | Tm [2]: 46 °C | inhibition [3]: 12.4% | inhibition [4]: 16.1% | inhibition [5]: 23.6% | LogFC [6]: 0.121 | Tm [7]: 44 °C | Tm [8]: 46 °C | Tm [9]: 43 °C | Tm [10]: 48 °C | Tm [11]: 42 °C | Tm [12]: 46 °C | inhibition [13]: 65.3% | inhibition [14]: 7.06% | Tm [15]: 43 °C | Tm [16]: 45 °C | inhibition [17]: 15.1% | LogFC [18]: 0.0306 | Tm [19]: 46 °C | LogFC [20]: 0.423 | inhibition (Rattus norvegicus): 59.6% | Tm [21]: 56 °C | inhibition [22]: 15.2% | Tm [23]: 46 °C | Tm [24]: 46 °C

— ChEMBL document CHEMBL5058646 (2022)
